Assay results taken from patent US6303596A, “Use of taurolidine for treatment of leukemias” (priority 2000, dated 2001).

Key:
REH cells = assay: trypan blue exclusion, REH; format: cell-based, human; settings: 25 μg/ml taurolidine, versus MM6, K562, Jurkat
Protocol: FIGS. 8A and 8B depict cell viability and growth rates for REH cell line following taurolidine treatment, in terms of % trypan blue negative cells and % cell number, respectively. Cells were treated with various concentrations of taurolidine for 4 hours in AIM-V+0.01% BCS. After aliquots were collected for LDH assay, the remainder of the culture was rinsed in HBSS and resuspended in RPMI+10% BCS without taurolidine. Counts of trypan blue-negative cells (FIG. 8A), and total cell number (FIG. 8B), were recorded daily thereafter (with the measurement at Day 1 being made immediately after the 4 hour taurolidine treatment). […] Doubling times were determined under each condition, and expressed as a percentage of the rate of doubling of untreated cells. […]
In these experiments, integrity of cell membranes following taurolidine treatment was assessed by exclusion of trypan blue and by measuring the release of LDH in MM6, K-562, HL-60, and REH cells. […] A parallel aliquot of cells was lysed by three cycles of freeze/thaw and the quantity of LDH released was taken to be 100%. […]
HL-60 cells treated with 50 μl taurolidine. In these samples, LDH present in the culture medium was 8.3±2.3% of that released by completely lysed cells, compared with 2.3±0.8% measured in control cultures. […]

MM6 = assay: TUNEL / propidium iodide flow cytometry, MM6; format: cell-based, human; settings: for % TUNEL-positive: MM6, taurolidine 100 μg/ml or anisomycin 1 μg/ml for 4 h, assayed at 6 hours, mean ± SD
Protocol: In the second method, DNA fragmentation was detected via TUNEL assay according to the manufacturer's instructions. With this methodology, 2×10^6 cells were fixed with 2% paraformaldehyde, permeabilized with 0.1% Triton X-100/0.1% citrate, incubated at 37° C. with terminal deoxynucleotidyl transferase and FITC-dUTP, rinsed and analyzed by flow cytometry. Enhanced FITC signal indicates apoptosis-specific DNA fragmentation. Gavriali, et al, "Identification of programmed cell death in situ via specific labeling of nuclear DNA fragmentation," J Cell Biol 119:493 (1992). Parallel aliquots of unfixed cells were treated with PI and FITC-conjugated anti-CD14 and analyzed by flow cytometry, in order to identify cells with permeable cell membranes (since PI binds to DNA but is excluded from cells with intact plasma membranes) and also to determine the cell-specificity of the apoptotic signal.
Consequently, TUNEL analysis was performed on PBMC at 3, 6, or 24 hours after treatment with 25 to 100 μg/ml taurolidine. Aliquots of harvested cells were also labeled with FITC-conjugated anti-CD14 antibodies and PI, which allowed identification of monocytes (CD14-positive cells) and cells with damaged cell membranes (PI-positive cells). […] Thus, nearly 75% of the monocytes were TUNEL-positive following treatment with 100 μg/ml taurolidine for six hours. Confirmation that the TUNEL-positive cells were monocytes was obtained by staining with FITC-conjugated anti-CD14.
In another study, TUNEL assays were performed on all cell lines 6 hours after cells were initially exposed to taurolidine (cells were treated for 4 hours, rinsed, and then incubated for 2 more hours before TUNEL assay was performed).
. Taurolidine and anisomycin induced apoptosis in MM6, HL-60, and Jurkat cells (Table VIII). MM6 and HL-60 cells were similarly effected, with >80% TUNEL-positive cells after 6 hours. Jurkat cells were less sensitive, with approximately 50% of cells induced to undergo apoptosis after taurolidine treatment. After 6 hours, 73% of anisomycin-treated REH cells were apoptotic, with less than 20% of taurolidine-treated REH cells being TUNEL-positive. However, assay of cells 24 hours after
^a Analysis by flow cytometry after staining cells with propidium
iodide and processing for TUNEL.
Data are percent of total cell-size events, and are expressed as mean ±
Cells were treated for 4 hours with taurolidine (100 μg/ml) or
anisomycin (1 μg/ml), and then assayed at 6 hours.

Question: For `O=S1(=O)CCN(CN2CCS(=O)(=O)NC2)CN1` [taurolidine, 4,4'-methylenebis(perhydro-1,2,4-thiadiazin 1,1-dioxide)], which “trypan blue staining after treatment, sensitivity” value (REH cells) is on record?
Answer: more sensitive

Question: And the cytotoxicity at 50 µg/mL (MM6; Homo sapiens, MONO-MAC-6, 3 h, read-out: % Propidium Iodide Positive Cells)?
Answer: 7%

Question: What about the “% TUNEL-positive” value (MM6) of the same compound?
Answer: 80.9 ± 7.7%

Question: And the “% TUNEL-positive” value (MM6; listed as Taurolidine)?
Answer: > 80%

Question: What about the “onset of apoptosis after treatment” value (MM6; MM6 cells) of the same compound?
Answer: detectable within four to six hours

Question: What about the “% TUNEL-Negative Cells” value (MM6; Mono Mac 6, 50 μg/ml, 3 hours) of the same compound?
Answer: 44%
